Molecular target: T1, CCR1 (Homo sapiens, UniProt P32246)
T1 construct: host or cells: THP-1 cells or monocytes isolated from human buffy coats
T1 sequence (P32246 1-355): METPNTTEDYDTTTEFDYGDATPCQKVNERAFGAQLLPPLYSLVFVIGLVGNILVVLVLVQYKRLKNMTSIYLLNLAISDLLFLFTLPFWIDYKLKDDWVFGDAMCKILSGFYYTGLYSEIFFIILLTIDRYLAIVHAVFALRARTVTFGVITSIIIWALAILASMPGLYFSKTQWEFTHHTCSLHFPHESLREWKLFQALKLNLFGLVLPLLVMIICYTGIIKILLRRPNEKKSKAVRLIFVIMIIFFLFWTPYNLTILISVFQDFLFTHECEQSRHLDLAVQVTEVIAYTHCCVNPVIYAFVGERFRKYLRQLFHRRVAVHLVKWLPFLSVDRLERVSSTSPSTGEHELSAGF
Test: CCR1 chemotaxis assay or binding assay (activity given for either)
Conditions: either the chemotaxis assay or binding assay; CCR1 expressing cells (THP-1 or human monocytes); read-out: Activity (IC50 class)
Experimental: Cells were grown under 5% CO2/95% air, 100% humidity at 37° C. and subcultured twice weekly at 1:5 (cells were cultured at a density range of 2×10^5 to 2×10^6 cells/mL) and harvested at 1×10^6 cells/mL. THP-1 cells express CCR1 and can be used in CCR1 binding and functional assays.
Monocytes were isolated from human buffy coats using the Miltenyi bead isolation system (Miltenyi, Auburn, Calif.). Briefly, following a Ficoll gradient separation to isolate peripheral blood mononuclear cells, cells were washed with PBS and the red blood cells lysed using standard procedures. Remaining cells were labeled with anti-CD14 antibodies coupled to magnetic beads (Miltenyi Biotech, Auburn, Calif.). Labeled cells were passed through AutoMACS (Miltenyi, Auburn, Calif.) and positive fraction collected. Monocytes express CCR1 and can be used in CCR1 binding and functional assays.
CCR1 expressing cells were centrifuged and resuspended in assay buffer (20 Mm HEPES pH 7.1, 140 Mm NaCl, 1 Mm CaCl2, 5 Mm MgCl2, and with 0.2% bovine serum albumin) to a concentration of 5×10^6 cells/mL for THP-1 cells and 5×10^5 for monocytes. Binding assays were set up as follows. […] Reactions were aspirated onto GF/B glass filters pre-soaked in 0.3% polyethyleneimine (PEI) solution, on a vacuum cell harvester (Packard Instruments; Meriden, Conn.). Scintillation fluid (40 μl; Microscint 20, Packard Instruments) was added to each well, the plates were sealed and radioactivity measured in a Topcount scintillation counter (Packard Instruments). Control wells containing either diluent only (for total counts) or excess MIP-1α or MIP-1β (1 μg/mL, for non-specific binding) were used to calculate the percent of total inhibition for compound. The computer program Prism from GraphPad, Inc. (San Diego, Calif.) was used to calculate IC50 values.
Chemotaxis assays were performed using 5 ┌ m pore polycarbonate, polyvinylpyrrolidone-coated filters in 96-well chemotaxis chambers (Neuroprobe; Gaithersburg, Md.) using chemotaxis buffer (Hank's balanced salt solution (HBSS) and 1% FBS). CCR1 chemokine ligands (i.e., MIP-1α, CCL15/Leukotactin; R&D Systems; Minneapolis, Minn.) are use to evaluate compound mediated inhibition of CCR1 Mediated migration. Other chemokines (i.e., SDF-1α; R&D Systems; Minneapolis, Minn.) are used as specificity controls. […] The chambers were incubated 1-2 hours at 37° C., and the number of cells in the lower chamber quantified either by direct cell counts in five high powered fields per well or by the CyQuant assay (Molecular Probes), a fluorescent dye method that measures nucleic acid content and microscopic observation.
THP-1 cells and monocytes lack other chemokine receptors that bind the same set of chemokine ligands as CCR1 (i.e., MIP-1α, MPIF-1, Leukotactin, etc.). Equal numbers of cells were added to each well in the plate. The cells were then incubated with radiolabeled MIP-1α. Unbound ligand was removed by washing the cells, and bound ligand was determined by quantifying radioactive counts. […] Percent inhibition was determined by the equation: […]
In the assay, the amount of compound was varied; while cell number and ligand concentration were held constant.
One of the primary functions of chemokines is their ability to mediate the migration of chemokine receptor-expressing cells, such as white blood cells. […] THP-1 Myelomonocytic leukemia cells, which resemble monocytes, as wells as freshly isolated monocytes, were used as targets for chemoattraction by CCR1 chemokine ligands (i.e., MIP-1α, CCL15/leukotactin). […] In this assay, the amount of compound was varied; while cell number and chemokine agonist concentrations were held constant. After the chemotaxis chambers were incubated 1-2 hours at 37° C., the responding cells in the lower chamber were quantified by labeling with the CyQuant assay (Molecular Probes), a fluorescent dye method that measures nucleic acid content, and by measuring with a Spectrafluor Plus (Tecan).

| IC50 | SMILES |
| --- | --- |
| < 1000 nM | COc1cc(N2CCN(C(=O)Cn3ncc4cc[n+]([O-])cc43)CC2)ccc1Cl [Compound 1.035] |
| < 1000 nM | COc1cc(N2CCN(C(=O)Cn3cc4c(Cl)nccc4n3)CC2)ccc1Cl [Compound 1.036] |
| < 1000 nM | COc1cc(N2CCN(C(=O)Cn3cc4c(I)ccnc4n3)CC2)ccc1Cl [Compound 1.037] |
| < 1000 nM | COc1cc(N2CCN(C(=O)Cn3ncc4c(I)ccnc43)CC2)ccc1Cl [Compound 1.038] |
| < 1000 nM | COc1cc(N2CCN(C(=O)Cn3ncc4c(S(C)(=O)=O)ccnc43)CC2)ccc1Cl [Compound 1.039] |
| < 1000 nM | COc1cc(N2CCN(C(=O)Cn3nc(CN=[N+]=[N-])c4cccnc43)CC2)ccc1Cl [Compound 1.040] |
| 1000 to 2500 nM | COc1cc(N2CCN(C(=O)Cn3nc(CS(=O)(=O)O)c4cccnc43)CC2)ccc1Cl [Compound 1.041] |
| < 1000 nM | COc1cc(N2CCN(C(=O)Cn3ncc4cc(Cl)cnc43)CC2)ccc1Cl [Compound 1.042] |
| < 1000 nM | COc1cc(N2CCN(C(=O)Cn3ncc4c(Cl)ncnc43)CC2)ccc1Cl [Compound 1.044] |
| < 1000 nM | COc1cc(N2CCN(C(=O)Cn3ncc4c(OC)ncnc43)CC2)ccc1Cl [Compound 1.045] |
| < 1000 nM | COc1cc(N2CCN(C(=O)Cn3cc4ccc(Cl)nc4n3)CC2)ccc1Cl [Compound 1.046] |
| < 1000 nM | COc1cc(N2CCN(C(=O)Cn3ncc4ccc(Cl)nc43)CC2)ccc1Cl [Compound 1.047] |
| < 1000 nM | COc1cc(N2CCN(C(=O)Cn3ncc4ccc(N=[N+]=[N-])nc43)CC2)ccc1Cl [Compound 1.048] |
| < 1000 nM | COc1cc(N2CCN(C(=O)Cn3ncc4ccc(N)nc43)CC2)ccc1Cl [Compound 1.049] |
| < 1000 nM | COc1cc(N2CCN(C(=O)Cn3ncc4ccnc(N=[N+]=[N-])c43)CC2)ccc1Cl [Compound 1.050] |
| < 1000 nM | COc1cc(N2CCN(C(=O)Cn3ncc4ccnc(N)c43)CC2)ccc1Cl [Compound 1.051] |
| < 1000 nM | COc1cc(N2CCN(C(=O)Cn3nc4ncccc4c3-c3ncco3)CC2)ccc1Cl [Compound 1.052] |
| < 1000 nM | COc1cc(N2CCN(C(=O)Cn3nc(C)c4cc(N)cnc43)CC2)ccc1Cl [Compound 1.053] |
| < 1000 nM | COc1cc(N2CCN(C(=O)Cn3nc(C)c4cc([N+](=O)[O-])cnc43)CC2)ccc1Cl [Compound 1.054] |
| < 1000 nM | COc1cc(N2CCN(C(=O)Cn3nc(N)c4ccc(C)nc43)CC2)ccc1Cl [Compound 1.055] |
| < 1000 nM | COc1cc(N2CCN(C(=O)Cn3nc(-c4ncon4)c4cccnc43)[C@@H](C)C2)c(F)cc1Cl [Compound 1.056] |
| < 1000 nM | COc1cc(N2CCN(C(=O)Cn3nc(C(=N)NO)c4cccnc43)CC2)ccc1Cl [Compound 1.057] |
| < 1000 nM | COc1cc(N2CCN(C(=O)Cn3nc(-c4ncon4)c4cccnc43)CC2)ccc1Cl [Compound 1.058] |

| IC50 | SMILES |
| --- | --- |
| < 1000 nM | COc1cc(N2CCN(C(=O)Cn3nc(-c4noc(C)n4)c4cccnc43)CC2)ccc1Cl [Compound 1.059] |
| < 1000 nM | COc1cc(N2CCN(C(=O)Cn3ncc4ccc(NC(C)=O)nc43)CC2)ccc1Cl [Compound 1.060] |
| < 1000 nM | COc1cc(N2CCN(C(=O)Cn3nc(S(C)(=O)=O)c4cccnc43)CC2)ccc1Cl [Compound 1.061] |
| 1000 to 2500 nM | COc1cc(N2CCN(C(=O)Cn3nc(CN)c4cccnc43)CC2)ccc1Cl [Compound 1.062] |
| < 1000 nM | COc1cc(N2CCN(C(=O)Cn3nc(I)c4cccnc43)CC2)ccc1Cl [Compound 1.063] |
| < 1000 nM | COc1cc(N2CCN(C(=O)Cn3nc(I)c4cccnc43)[C@@H](C)C2)c(F)cc1Cl [Compound 1.064] |
| < 1000 nM | CCOc1cc(N2CCN(C(=O)Cn3nc(-c4ncc[nH]4)c4cccnc43)CC2)c(F)cc1Cl [Compound 1.065] |
| < 1000 nM | O=C(Cn1nc(-c2ncc[nH]2)c2cccnc21)N1CCN(c2cc(OCCF)c(Cl)cc2F)CC1 [Compound 1.066] |
| < 1000 nM | CCOc1cc(N2CCN(C(=O)Cn3nc(-c4ncc[nH]4)c4cccnc43)CC2)ccc1Cl [Compound 1.067] |
| < 1000 nM | COc1cc(N2CCN(C(=O)Cn3nc(-c4ncc[nH]4)c4cccnc43)CC2)c(F)cc1Cl [Compound 1.068] |
| < 1000 nM | COc1cc(N2CCN(C(=O)Cn3nc(-c4ncc[nH]4)c4cccnc43)[C@@H](C)C2)ccc1Cl [Compound 1.069] |
| < 1000 nM | COc1cc(N2CCN(C(=O)Cn3nc(-c4ncc[nH]4)c4cccnc43)[C@@H](C)C2)c(F)cc1Cl [Compound 1.070] |
| < 1000 nM | COc1cc(N2CCN(C(=O)Cn3nc(-c4ncc[nH]4)c4cccnc43)C[C@H]2C)ccc1Cl [Compound 1.071] |
| < 1000 nM | COc1cc(N2CCN(C(=O)Cn3nc(-c4ncc[nH]4)c4cccnc43)C[C@@H]2C)ccc1Cl [Compound 1.072] |
| < 1000 nM | COc1cc(N2CCN(C(=O)Cn3nc(-c4ncc[nH]4)c4cccnc43)[C@H](C)C2)ccc1Cl [Compound 1.073] |
| < 1000 nM | CCOc1cc(N2CCN(C(=O)Cn3nc(-c4ncc[nH]4)c4cccnc43)[C@@H](C)C2)ccc1Cl [Compound 1.074] |
| < 1000 nM | O=C(Cn1nc(-c2ncc[nH]2)c2cccnc21)N1CCN(c2ccc(Cl)c(OCCF)c2)CC1 [Compound 1.075] |
| < 1000 nM | C[C@H]1CN(c2ccc(Cl)c(OCCF)c2)CCN1C(=O)Cn1nc(-c2ncc[nH]2)c2cccnc21 [Compound 1.076] |
| < 1000 nM | Cc1cc(N2CCN(C(=O)Cn3nc(-c4ncc[nH]4)c4cccnc43)CC2)ccc1Cl [Compound 1.077] |
| 2500 to 12500 nM | O=C(Cn1nc(-c2ncc[nH]2)c2cccnc21)N1CCN(c2ccc(Cl)c(C(F)(F)F)c2)CC1 [Compound 1.078] |
| < 1000 nM | O=C(Cn1nc(-c2ncc[nH]2)c2cccnc21)N1CCN(c2ccc(Cl)c(OC(F)(F)F)c2)CC1 [Compound 1.079] |
| < 1000 nM | COc1cc(N2CCN(C(=O)Cn3nc(-c4ncc[nH]4)c4cccnc43)CC2)ccc1Cl [Compound 1.080] |
| < 1000 nM | COc1cc(N2CCN(C(=O)Cn3nc(-c4nccn4C)c4cccnc43)CC2)ccc1Cl [Compound 1.081] |

From patent publication US7777035B2, “Azaindazole compounds and methods of use” (Chemocentryx, Inc., priority 2005, dated 2010)
